Tested on: tracheal smooth muscle
Experiment: Dilating action to contraction of tracheal smooth muscle (potassium chloride-induced contraction of isolated trachea segment, Magnus tube)
Format: cell-based
Conditions: 30 μM test substance, contraction induced by 72.7 mM potassium chloride, guinea pig (Hartley, male) trachea segment; for inhibition at 30 µM: Cavia porcellus, read-out: Activity (suppressing rate for contraction by potassium chloride)
Procedure: Each sample is tested by using two segment obtained from one animal; the trachea was removed from a guinea pig (Hartley, male, seven weeks age) and was made the segment, 6 mm in length. The segment was suspended in a Magnus tube containing a physiological salt solution of 37° C. with a flow of mixed gas consisting of 95% oxygen and 5% carbon dioxide gas. A base-line tension of 1 g was applied to the segment and, after tension of the sample became stable, the solution was exchanged with a solution containing 72.7 mM of potassium chloride to induce a contraction. When tension of the contraction by potassium chloride became stable, a compound of the formula (1) was added as a test substance to measure the change in the tension. The test substance was dissolved in dimethyl sulfoxide and added thereto. Incidentally, at the stage of addition, the final concentration of dimethyl sulfoxide was made not more than 0.3%. Changes in the tension was recorded on a recorder (R-64V, Rika Denki) after introducing to an amplifier for strain pressure (AP-621G, Nippon Koden Kogyo) via an FD pickup transducer (TB-611T, Nippon Koden Kogyo). Tension before addition of potassium chloride was set as 0 while that after addition of potassium chloride was set as 100 and the suppressing rate for contraction by potassium chloride after addition of the test substance was expressed by a relative percentage whereby the activity was determined according to the following criteria.
The Compound No. in the table is the same as that in the Production Examples.

| Compound | Activity (suppressing rate for contraction by potassium chloride) | inhibition at 30 µM [%] |
| --- | --- | --- |
| 2-thiomethyl-7,9-dihydroxy-10,11-dihydrodibenzo[b,f]oxepin-10-one S-oxide [Compound 109] | − (no suppressing action of not less than 50% was achieved at 30 μM) | – |
| O=C1Cc2ccccc2Oc2c(O)c(O)cc(O)c21 [Compound 2, 6,7,9-trihydroxy-10,11-dihydrodibenz[b,f]oxepin-10-one] | – | ≤ 50 |
| O=C1Cc2ccccc2Oc2c(O)ccc(O)c21 [Compound 7, 6,9-dihydroxy-10,11-dihydrodibenz[b,f]oxepin-10-one] | – | ≥ 50 |
| O=C1Cc2ccccc2Oc2c1ccc(O)c2O [Compound 8, 6,7-dihydroxy-10,11-dihydrodibenz[b,f]oxepin-10-one] | – | ≤ 50 |
| O=C1Cc2ccccc2Oc2cc(O)c(O)c(O)c21 [Compound 9, 7,8,9-trihydroxy-10,11-dihydrodibenz[b,f]oxepin-10-one] | – | ≤ 50 |
| Oc1cc(O)c2c(c1)Oc1ccccc1CC2 [Compound 12, 10,11-dihydrodibenz[b,f]oxepin-1,3-diol] | – | ≥ 50 |
| O=C1Cc2ccccc2Oc2cc(O)c(O)cc21 [Compound 13, 7,8-dihydroxy-10,11-dihydrodibenz[b,f]oxepin-10-one] | – | ≤ 50 |
| Oc1cc2c(cc1O)Oc1ccccc1CC2 [Compound 14, 10,11-dihydrodibenz[b,f]oxepin-2,3-diol] | – | ≤ 50 |
| O=C1Cc2ccc(Cl)cc2Oc2cc(O)cc(O)c21 [Compound 15, 3-chloro-7,9-dihydroxy-10,11-dihydrodibenz[b,f]oxepin-10-one] | – | ≥ 50 |
| Oc1cc(O)c2c(c1)Oc1cc(Cl)ccc1CC2 [Compound 16, 7-chloro-10,11-dihydrodibenz[b,f]oxepin-1,3-diol] | – | ≤ 50 |
| O=C1Cc2cc(Cl)ccc2Oc2cc(O)cc(O)c21 [Compound 19, 2-chloro-7,9-dihydroxy-10,11-dihydrodibenz[b,f]oxepin-10-one] | – | ≥ 50 |
| Oc1cc(O)c2c(c1)Oc1ccc(Cl)cc1CC2 [Compound 20, 8-chloro-10,11-dihydrodibenz[b,f]oxepin-1,3-diol] | – | ≤ 50 |
| O=C1Cc2ccc(F)cc2Oc2cc(O)cc(O)c21 [Compound 23, 3-fluoro-7,9-dihydroxy-10,11-dihydrodibenz[b,f]oxepin-10-one] | – | ≥ 50 |
| Oc1cc(O)c2c(c1)Oc1cc(F)ccc1CC2 [Compound 24, 7-fluoro-10,11-dihydrodibenz[b,f]oxepin-1,3-diol] | – | ≥ 50 |
| O=C1Cc2ccc(Cl)c(Cl)c2Oc2cc(O)cc(O)c21 [Compound 27, 3,4-dichloro-7,9-dihydroxy-10,11-dihydrodibenz[b,f]oxepin-10-one] | – | ≥ 50 |
| Oc1cc(O)c2c(c1)Oc1c(ccc(Cl)c1Cl)CC2 [Compound 28, 6,7-dichloro-10,11-dihydrodibenz[b,f]oxepin-1,3-diol] | – | ≤ 50 |
| O=C1Cc2cc(F)ccc2Oc2cc(O)cc(O)c21 [Compound 29, 2-fluoro-7,9-dihydroxy-10,11-dihydrodibenz[b,f]oxepin-10-one] | – | ≥ 50 |
| Oc1cc(O)c2c(c1)Oc1ccc(F)cc1CC2 [Compound 30, 8-fluoro-10,11-dihydrodibenz[b,f]oxepin-1,3-diol] | – | ≥ 50 |
| O=C1Cc2cc(Cl)cc(Cl)c2Oc2cc(O)cc(O)c21 [Compound 34, 2,4-dichloro-7,9-dihydroxy-10,11-dihydrodibenz[b,f]oxepin-10-one] | – | ≥ 50 |
| Oc1cc(O)c2c(c1)Oc1c(Cl)cc(Cl)cc1CC2 [Compound 35, 6,8-dichloro-10,11-dihydrodibenz[b,f]oxepin-1,3-diol] | – | ≤ 50 |
| O=C1Cc2cccc(Cl)c2Oc2cc(O)cc(O)c21 [Compound 36, 4-chloro-7,9-dihydroxy-10,11-dihydrodibenz[b,f]oxepin-10-one] | – | ≥ 50 |
| Oc1cc(O)c2c(c1)Oc1c(Cl)cccc1CC2 [Compound 37, 6-chloro-10,11-dihydrodibenz[b,f]oxepin-1,3-diol] | – | ≥ 50 |
| O=C1Cc2cc(C(F)(F)F)ccc2Oc2cc(O)cc(O)c21 [Compound 38, 7,9-dihydroxy-2-trifluoromethyl-10,11-dihydrodibenz[b,f]oxepin-10-one] | – | ≥ 50 |
| Oc1cc(O)c2c(c1)Oc1ccc(C(F)(F)F)cc1CC2 [Compound 39, 8-trifluoromethyl-10,11-dihydrodibenz[b,f]oxepin-1,3-diol] | – | ≥ 50 |
| O=C1Cc2cc(O)c(O)cc2Oc2cc(O)cc(O)c21 [Compound 40, 2,3,7,9-tetrahydroxy-10,11-dihydrodibenz[b,f]oxepin-10-one] | – | ≤ 50 |

| Compound | Activity (suppressing rate for contraction by potassium chloride) | inhibition at 30 µM [%] |
| --- | --- | --- |
| Oc1cc2c(cc1O)Sc1ccccc1CC2 [Compound 44, 10,11-dihydrodibenz[b,f]thiepin-2,3-diol] | – | ≥ 50 |
| CC(=O)c1c(O)cc(O)c2c1Oc1ccccc1CC2 [Compound 47, 4-acetyl-10,11-dihydrodibenz[b,f]oxepin-1,3-diol] | – | ≥ 50 |
| O=C1Cc2c(F)cccc2Oc2cc(O)cc(O)c21 [Compound 49, 1-fluoro-7,9-dihydroxy-10,11-dihydrodibenz[b,f]oxepin-10-one] | – | ≥ 50 |
| O=C1Cc2c(F)cccc2Oc2cc(F)c(F)cc21 [Compound 63, 1,7,8-trifluoro-10,11-dihydrodibenz[b,f]oxepin-10-one] | – | ≥ 50 |
| O=C1Cc2cc([N+](=O)[O-])ccc2Oc2cc(O)cc(O)c21 [Compound 70, 2-nitro-7,9-dihydroxy-10,11-dihydrodibenz[b,f]oxepin-10-one] | – | ≥ 50 |
| Nc1ccc2c(c1)CC(=O)c1c(O)cc(O)cc1O2 [Compound 71, 2-amino-7,9-dihydroxy-10,11-dihydrodibenz[b,f]oxepin-10-one] | – | ≥ 50 |
| Nc1ccc2c(c1)CCc1c(O)cc(O)cc1O2 [Compound 77, 8-amino-10,11-dihydrodibenz[b,f]oxepin-1,3-diol] | – | ≤ 50 |
| Oc1cc(O)c2c(c1)Sc1ccccc1CC2 [Compound 81, 10,11-dihydrodibenzo[b,f]thiepin-1,3-diol] | – | ≥ 50 |
| CC(=O)c1c(O)c2c(c(C(C)=O)c1O)Sc1ccccc1CC2 [Compound 84, 2,4-diacetyl-10,11-dihydrodibenzo[b,f]thiepin-1,3-diol] | – | ≥ 50 |
| CC(=O)c1c(O)cc(O)c2c1Sc1ccccc1CC2 [Compound 85, 4-acetyl-10,11-dihydrodibenzo[b,f]thiepin-1,3-diol] | – | ≥ 50 |
| CC(=O)c1ccc2c(c1)CCc1c(O)cc(O)cc1S2 [Compound 86, 8-acetyl-10,11-dihydrodibenzo[b,f]thiepin-1,3-diol] | – | ≥ 50 |
| CCC(=O)c1c(O)c2c(c(C(=O)CC)c1O)Sc1ccccc1CC2 [Compound 89, 2,4-dipropionyl-10,11-dihydrodibenzo[b,f]thiepin-1,3-diol] | – | ≥ 50 |
| CCC(=O)c1c(O)cc(O)c2c1Sc1ccccc1CC2 [Compound 90, 4-propionyl-10,11-dihydrodibenzo[b,f]thiepin-1,3-diol] | – | ≥ 50 |
| CCC(=O)c1ccc2c(c1)CCc1c(O)cc(O)cc1S2 [Compound 91, 8-propionyl-10,11-dihydrodibenzo[b,f]thiepin-1,3-diol] | – | ≥ 50 |
| CC(=O)c1ccc2c(c1)C=Cc1cc(O)c(O)cc1S2 [Compound 92, 8-acetyldibenzo[b,f]thiepin-2,3-diol] | – | ≥ 50 |
| CC(=O)Nc1ccc2c(c1)CC(=O)c1c(O)cc(O)cc1O2 [Compound 94, N-acetyl-2-amino-7,9-dihydroxy-10,11-dihydrodibenzo[b,f]oxepin-10-one] | – | ≥ 50 |
| CC(=O)c1ccc2c(c1)CCc1c(O)cc(O)cc1O2 [Compound 95, 8-acetyl-10,11-dihydrodibenzo[b,f]oxepin-1,3-diol] | – | ≥ 50 |
| CC(O)c1ccc2c(c1)CCc1c(O)cc(O)cc1O2 (stereo not shown) [Compound 96, 8-(1-hydroxyethyl)-10,11-dihydrodibenzo[b,f]oxepin-1,3-diol] | – | ≥ 50 |
| O=C(O)Cc1ccc2c(c1)CCc1c(O)cc(O)cc1O2 [Compound 97, 7,9-dihydroxy-10,11-dihydrodibenzo[b,f]oxepin-2-acetic acid] | – | ≤ 50 |
| Cc1ccc2c(c1)CC(=O)c1cc(O)c(O)cc1S2 [Compound 104, 7,8-dihydroxy-2-methyl-10,11-dihydrodibenzo[b,f]thiepin-10-one] | – | ≥ 50 |
| CC(C)c1ccc2c(c1)CC(=O)c1cc(O)c(O)cc1S2 [Compound 106, 7,8-dihydroxy-2-(2-propyl)-10,11-dihydrodibenzo[b,f]thiepin-10-one] | – | ≥ 50 |
| CSc1ccc2c(c1)CC(=O)c1c(O)cc(O)cc1O2 [Compound 108, 2-thiomethyl-7,9-dihydroxy-10,11-dihydrodibenzo[b,f]oxepin-10-one] | – | ≥ 50 |
| O=C1Cc2cc(Br)ccc2Oc2cc(O)cc(O)c21 [Compound 110, 2-bromo-7,9-dihydroxy-10,11-dihydrodibenzo[b,f]oxepin-10-one] | – | ≥ 50 |
| CCc1ccc2c(c1)CC(=O)c1c(O)cc(OC)cc1O2 [Compound 111, 2-ethyl-9-hydroxy-7-methoxy-10,11-dihydrodibenzo[b,f]oxepin-10-one] | – | ≥ 50 |

— patent publication US6495592B1, “Tracheal smooth muscle relaxants” (Nippon Suisan Kaisha, Ltd., priority 1996, dated 2002)
